# Laboratory results: US20060217303A1, “Compounds and Methods for Treating Seizure Disorders” (Wisconsin Alumni Research Foundation, priority 2005, published 2006)
# Key:
# [1] = Duration of anticonvulsant effect of 2DG after stopping treatment while continuing twice daily stimulation; assay type: in vivo; settings: 250 mg/kg twice daily for 3 months; twice daily stimulation continued
# Method: . […]; 5 mM solutions of oxaloacetate glycolic acid, chloroacetate and thioglycolate are equivalent to 660 mg/kg 380 mg/kg, ˜620 mg/kg and 460 mg/kg. respectively. […] A practitioner skilled in the art can adjust dosage in the range up to 500-600 mg/kg 2DG and the timing of administration to produce prolonged anticonvulsant and antiepileptic effects. Efficacious dosage amounts can be adjusted to about 14 mg/kg 2-DG in children and 40 mg/kg 2-DG in adults, using therapeutic efficacy measurements (e.g., reduction in frequency or severity of seizures) as a criterion for establishing effective dosage levels.
# [2] = test system: brains of animals suffering from a seizure disorder; settings: as disclosed in co-owned U.S. Ser. No. 60/580,436; cited from earlier work
# [3] = test system: CA3 region of rat hippocampal slices; assay: Synchronized bursting induced by elevated [K+]o in rat hippocampal slices ex corpora (extracellular CA3 recording); assay type: cell-based; settings: for synchronized bursting: 10 mM glucose; for epileptic discharges evoked in vitro (relative burst frequency) / epileptiform bursting frequency: normal glucose conditions; for epileptic discharges evoked in vitro (relative burst frequency): summary statement; for block of the increase in bursting caused by the PEPCK inhibitor 3-MCP: slices simultaneously exposed to 3-MCP, FIGS. 5A, 5B; for epileptiform bursting frequency: FIG. 6A; for burst frequency: 20 mM lactate or 20 mM pyruvate in place of 10 mM glucose in ACSF, 7.5 mM [K+]o
# Method: The effect of various energy sources on synchronized bursting induced by elevation of [K^+]o in rat hippocampal slices ex corpora was evaluated.
# In these experiments, postnatal day 28 to 40 male Sprague-Dawley rats were anesthetized and decapitated. Brains were removed and transferred to ice cold artificial cerebrospinal fluid (ACSF, comprising 124 mM NaCl, 5 mM KCl, 1.25 mM NaH2PO4, 1.5 mM MgSO4, 26 mM NaHCO3 and 2 mM CaCl2), supplemented with 10 mM glucose, which was continuously bubbled with 95% O2 and 5% CO2. Transverse hippocampal slices (˜500 microns) were prepared on a Leica VT1000s vibratome (Wetzlar Germany). The slices were allowed to recover for 1 hour at room temperature and were then transferred to an interface recording chamber at 34° C. in ACSF with 7.5 mM [K^+]o. Extracellular recordings were made from the CA3 region with an Axioclamp 2B (Axon Instruments, Forest City, Calif.) using a glass microelectrode filled with 150 mM NaCl. Data were recorded and analyzed using PClamp8 (Axon Instruments).
# Synchronized bursting was induced by incubating hippocampal slices in ACSF supplemented with potassium chloride to a final concentration of 7.5 mM [K^+]o. Baseline recordings were obtained after exposure to elevated [K^+]o for 1 hour and the burst frequency had stabilized. Bursting was then recorded in ACSF containing 20 mM lactate or 20 mM pyruvate in place of the 10 mM glucose.
compound,measurement,setting,value
"O=CC[C@@H](O)[C@H](O)[C@H](O)CO [2DG, 2-deoxy-D-glucose]",duration of anticonvulsant effects after stopping 2DG,[1],approximately 8 weeks
same,epileptic or synchronized bursting in the brains of animals,[2],effective in reducing epileptic or synchronized bursting
same,synchronized bursting,[3]; 1 mM 2DG in the presence of 20 mM lactate,reduced synchronized bursting
same,epileptic discharges evoked in vitro (relative burst frequency),[3],effective against epileptic discharges
same,block of the increase in bursting caused by the PEPCK inhibitor 3-MCP,[3],could not be blocked
"O=C(O)c1ncccc1S [3-MCP, 3-mercaptopicolinic acid, reference compound]",burst frequency (rate of bursting),[3]; 3 mM 3-MCP in ACSF with 10 mM glucose,208±28 % of baseline
same,rate of bursting,"[3]; 3-MCP, FIGS. 5A and 5B",induces an increase in the rate of bursting
O=C(O)[C@@H](O)CO [L-glycerate],epileptic discharges evoked in vitro (relative burst frequency),[3],effective against epileptic discharges
"C=C(OP(=O)(O)O)C(=O)O [PEP, phosphoenolpyruvate, reference compound]",burst frequency (rate of bursting),"[3]; 5 mM PEP in ACSF with 10 mM glucose, reversible",215±32 % of baseline
O=C(O)CO [glycolic acid],block of the increase in bursting caused by inhibition of PEPCK by 3-MCP,"[3]; PEPCK substrate with 3-MCP, FIGS. 6B, 6C",modestly blocks an increase in bursting
same,epileptiform bursting frequency,[3],reduce epileptiform bursting frequency
same,epileptic discharges evoked in vitro (relative burst frequency),[3],effective against epileptic discharges
"O=C(O)CI [iodoacetate, reference compound]",epileptic or synchronized bursting in the brains of animals,[2],effective in reducing epileptic or synchronized bursting
same,synchronized bursting,"[3]; 200 μM iodoacetate, ACSF with 20 mM lactate",reduced synchronized bursting
same,epileptic discharges evoked in vitro (relative burst frequency),[3],effective against epileptic discharges
same,block of the increase in bursting caused by the PEPCK inhibitor 3-MCP,[3],could not be blocked
"CC(O)C(=O)O (stereo not shown) [lactate, reference compound]",burst frequency,[3]; reversible,63±8 % of the baseline
"CC(=O)C(=O)O [pyruvate, reference compound]",burst frequency,[3]; reversible,4±2 % of the baseline
O=C(O)CCl [β-chloroacetate],epileptiform bursting frequency,[3],reduce epileptiform bursting frequency
same,epileptic discharges evoked in vitro (relative burst frequency),[3],effective against epileptic discharges
thioglycolate,epileptiform bursting frequency,[3],reduce epileptiform bursting frequency
same,epileptic discharges evoked in vitro (relative burst frequency),[3],effective against epileptic discharges
